Assays:
[1] = tested on: barnyardgrass; assay: Test A pre-/postemergence greenhouse test; assay type: in vivo, Echinochloa crus-galli; conditions: for Barnyardgrass plant response rating: 0 to 100 scale; for Plant response rating, Barnyardgrass: 0 to 100 scale where 0 is no effect and 100 is complete control
Method in brief: (§1)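 Pre: directed soil spray on seeded loam/sand. Post: foliar spray, plants 2–10 cm, 1–2 leaf stage, applied concurrently. Vehicle: non-phytotoxic solvent + surfactant. Greenhouse ~10 d; visual injury rating vs untreated controls.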

[2] = tested on: crabgrass; assay: Test A pre-/postemergence greenhouse test; assay type: in vivo, Digitaria sanguinalis; conditions: for Crabgrass, Large plant response rating: 0 to 100 scale; for Plant response rating, Crabgrass, Large: 0 to 100 scale where 0 is no effect and 100 is complete control
Method in brief: as §1

[3] = tested on: giant foxtail; assay: Test A pre-/postemergence greenhouse test; assay type: in vivo, Setaria faberi; conditions: for Foxtail, Giant plant response rating: 0 to 100 scale; for Plant response rating, Foxtail, Giant: 0 to 100 scale where 0 is no effect and 100 is complete control
Method in brief: as §1

[4] = tested on: morningglory; assay: Test A pre-/postemergence greenhouse test; assay type: in vivo, Ipomoea spp.; conditions: for Morningglory plant response rating: 0 to 100 scale; for Plant response rating, Morningglory: 0 to 100 scale where 0 is no effect and 100 is complete control
Method in brief: as §1

[5] = tested on: redroot pigweed; assay: Test A pre-/postemergence greenhouse test; assay type: in vivo, Amaranthus retroflexus; conditions: for Pigweed plant response rating: 0 to 100 scale; for Plant response rating, Pigweed: 0 to 100 scale where 0 is no effect and 100 is complete control
Method in brief: as §1

[6] = tested on: velvetleaf; assay: Test A pre-/postemergence greenhouse test; assay type: in vivo, Abutilon theophrasti; conditions: for Velvetleaf plant response rating: 0 to 100 scale; for Plant response rating, Velvetleaf: 0 to 100 scale where 0 is no effect and 100 is complete control
Method in brief: as §1

[7] = tested on: wheat; assay: Test A pre-/postemergence greenhouse test; assay type: in vivo, Triticum aestivum; conditions: for Wheat plant response rating: 0 to 100 scale; for Plant response rating, Wheat: 0 to 100 scale where 0 is no effect and 100 is complete control
Method in brief: as §1

[8] = tested on: corn; assay: Test A pre-/postemergence greenhouse test; assay type: in vivo, Zea mays; conditions: for Corn plant response rating: 0 to 100 scale; for Plant response rating, Corn: 0 to 100 scale where 0 is no effect and 100 is complete control
Method in brief: as §1

[9] = tested on: rice; assay: Test C flooded paddy test; assay type: in vivo, Oryza sativa; conditions: Flood
Method in brief: (§2)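 Pots were flooded to 3 cm above the soil surface at treatment, compound applied directly to the paddy water, and that depth held throughout. Plants were kept in a greenhouse for 13 to 15 days, then visually rated against untreated controls.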

[10] = tested on: umbrella sedge; assay: Test C flooded paddy test; assay type: in vivo, Cyperus difformis; conditions: Flood
Method in brief: as §2

[11] = tested on: duck salad; assay: Test C flooded paddy test; assay type: in vivo, Heteranthera limosa; conditions: Flood
Method in brief: as §2

[12] = tested on: barnyardgrass; assay: Test C flooded paddy test; assay type: in vivo, Echinochloa crus-galli; conditions: Flood
Method in brief: as §2

[13] = Postemergence, 125 g ai/ha, 0 is no effect, 100 is complete control
[14] = Postemergence, 500 g ai/ha, 0 is no effect, 100 is complete control
[15] = Preemergence, 125 g ai/ha, 0 no effect, 100 complete control
[16] = 31 g ai/ha, scale 0 to 100 (0 no effect, 100 complete control)
[17] = 62 g ai/ha, scale 0 to 100, 0 no effect, 100 complete control, 13 to 15 days
[18] = 125 g ai/ha, scale 0 to 100, 0 no effect, 100 complete control, 13 to 15 days
[19] = 250 g ai/ha, scale 0 to 100 (0 no effect, 100 complete control)
[20] = 250 g ai/ha, scale 0 to 100, 0 no effect, 100 complete control, 13 to 15 days
[21] = Preemergence, 500 g ai/ha, 0 no effect, 100 complete control
[22] = 62 g ai/ha, scale 0 to 100 (0 no effect, 100 complete control)

CC(c1c(C(F)(F)F)nn(C)c1Cl)[S+]([O-])c1cccc[n+]1[O-] (mixture of isomers) [Compound 27]
60: Foxtail, Giant plant response rating [3, 14]
40: Crabgrass, Large plant response rating [2, 14] | Crabgrass, Large plant response rating [2, 15]
80: Plant response rating, Crabgrass, Large ([2]; Preemergence, 500 g ai/ha) | Plant response rating, Foxtail, Giant ([3]; Preemergence, 500 g ai/ha)
70: Plant response rating, Barnyardgrass ([1]; Preemergence, 500 g ai/ha)
30: Foxtail, Giant plant response rating [3, 15] | Plant response rating, Wheat ([7]; Preemergence, 500 g ai/ha)
50: Barnyardgrass plant response rating [1, 14]
0: Barnyardgrass plant response rating [1, 15] | Crabgrass, Large plant response rating [2, 13] | Foxtail, Giant plant response rating [3, 13] | Morningglory plant response rating [4, 13] | Morningglory plant response rating [4, 15] | Plant response rating, Morningglory ([4]; Preemergence, 500 g ai/ha) | Pigweed plant response rating [5, 13] | Pigweed plant response rating [5, 15] | Plant response rating, Pigweed ([5]; Preemergence, 500 g ai/ha) | Velvetleaf plant response rating [6, 13] | Velvetleaf plant response rating [6, 14] | Wheat plant response rating [7, 13] | Wheat plant response rating [7, 14] | Corn plant response rating [8, 13] | Corn plant response rating [8, 15] | Plant response rating, Corn ([8]; Preemergence, 500 g ai/ha) | Plant response rating, Rice [9, 16] | Plant response rating, Rice [9, 17] | Plant response rating, Rice [9, 18] | Plant response rating, Rice [9, 19] | Plant response rating, Sedge, Umbrella [10, 16] | Plant response rating, Sedge, Umbrella [10, 17] | Plant response rating, Sedge, Umbrella [10, 18] | Plant response rating, Sedge, Umbrella [10, 20] | Plant response rating, Ducksalad [11, 16] | Plant response rating, Ducksalad [11, 17] | Plant response rating, Ducksalad [11, 18] | Plant response rating, Ducksalad [11, 19] | Plant response rating, Barnyardgrass [12, 16] | Plant response rating, Barnyardgrass [12, 17] | Plant response rating, Barnyardgrass [12, 18] | Plant response rating, Barnyardgrass [12, 19]
20: Barnyardgrass plant response rating [1, 13] | Morningglory plant response rating [4, 14] | Velvetleaf plant response rating [6, 15] | Plant response rating, Velvetleaf ([6]; Preemergence, 500 g ai/ha) | Wheat plant response rating [7, 15] | Corn plant response rating [8, 14]
10: Pigweed plant response rating [5, 14]

Cn1nc(C(F)(F)C(F)(F)F)c(CS(=O)(=O)c2ccc(Cl)c[n+]2[O-])c1OCC(F)(F)F [Compound 100]
0: Barnyardgrass plant response rating [1, 15] | Plant response rating, Morningglory ([4]; Postemergence, 125 g ai/ha) | Morningglory plant response rating [4, 15] | Plant response rating, Pigweed ([5]; Postemergence, 125 g ai/ha) | Plant response rating, Velvetleaf ([6]; Postemergence, 125 g ai/ha) | Velvetleaf plant response rating [6, 15] | Plant response rating, Wheat ([7]; Postemergence, 125 g ai/ha) | Wheat plant response rating [7, 14] | Wheat plant response rating [7, 15] | Plant response rating, Corn ([8]; Postemergence, 125 g ai/ha) | Corn plant response rating [8, 14] | Corn plant response rating [8, 15] | Corn plant response rating [8, 21] | Plant response rating, Rice [9, 22] | Plant response rating, Rice [9, 20] | Plant response rating, Sedge, Umbrella [10, 22] | Plant response rating, Sedge, Umbrella [10, 20] | Plant response rating, Ducksalad [11, 22] | Plant response rating, Barnyardgrass [12, 22] | Plant response rating, Barnyardgrass [12, 20]
50: Plant response rating, Foxtail, Giant ([3]; Postemergence, 125 g ai/ha) | Velvetleaf plant response rating [6, 21]
60: Barnyardgrass plant response rating [1, 14] | Foxtail, Giant plant response rating [3, 15] | Pigweed plant response rating [5, 14] | Pigweed plant response rating [5, 15]
80: Crabgrass, Large plant response rating [2, 14] | Crabgrass, Large plant response rating [2, 21] | Pigweed plant response rating [5, 21]
40: Plant response rating, Barnyardgrass ([1]; Postemergence, 125 g ai/ha) | Plant response rating, Crabgrass, Large ([2]; Postemergence, 125 g ai/ha) | Crabgrass, Large plant response rating [2, 15]
90: Barnyardgrass plant response rating [1, 21] | Foxtail, Giant plant response rating [3, 14] | Foxtail, Giant plant response rating [3, 21]
10: Morningglory plant response rating [4, 21] | Wheat plant response rating [7, 21]
30: Plant response rating, Ducksalad [11, 20]
20: Morningglory plant response rating [4, 14] | Velvetleaf plant response rating [6, 14]
